Values after ≈ are worked out from the molar mass of the structure shown. Like-named read-outs stand apart in the source and are kept apart here.
Key:
Type in all cases: cell-based
E. faecalis strains = experiment: MIC against E. faecalis strains (Table M8); settings: Enterococcus faecalis, E. faecalis 29212
A. baumannii strains = experiment: MIC against A. baumannii strains (Table M8); settings: Acinetobacter baumannii, BAA747, A. baumannii BAA747-1
E. coli strains = experiment: MIC against E. coli strains (Table M7); settings: Escherichia coli, ATCC25922, E. coli ATCC 25922
Source text: (§1) We have collected MIC data for a total of 50 novel macrolides that this platform has produced against over 21 unique strains of B. subtilis, E. coli, S. aureus, S. pneumoniae, and H. influenzae, including several multidrug-resistant strains, with a special focus on macrolide resistant mechanisms (vide supra). Azithromycin was included as a control macrolide. CLSI standard procedures for broth dilution MIC determination were used. […] These genotypes can be constitutive or inducible. The finding that C4-epi (unnatural) isomers of the “azaketolide” macrolide class have enhanced activities relative to C4 natural isomers is very exciting.

H. influenzae strains = experiment: MIC against H. influenzae strains (Table M8); settings: Haemophilus influenzae
Source text: as §1

K. pneumoniae strains = experiment: MIC against K. pneumoniae strains (Table M8); settings: Klebsiella pneumoniae, K. pneumoniae 10031
S. pneumoniae strains = experiment: MIC against S. pneumoniae strains (Tables M7, M8); settings: for MIC: Streptococcus pneumoniae
Source text: CLSI standard procedures for broth dilution MIC determination were used. […] These genotypes can be constitutive or inducible.

S. aureus strains = experiment: MIC against S. aureus strains (Table M7); settings: Staphylococcus aureus
Source text: as §1

[1] = H. influenzae 49247, read-out: MIC H. influenzae (49247)
[2] = H. influenzae 49766, read-out: MIC H. influenzae (49766)
[3] = S. pneumoniae 160, read-out: MIC S. pneumonae (160)
[4] = S. pneumoniae 1509, read-out: MIC S. pneumoniae (1509)
[5] = S. pneumoniae 1533, read-out: MIC S. pneumoniae (1533)
[6] = S. pneumoniae 1537, read-out: MIC S. pneumoniae (1537)
[7] = S. pneumoniae 49619, read-out: MIC S. pneumoniae (49619)
[8] = ATCC29213, S. aureus ATCC 29213, read-out: MIC S. aureus (ATCC 29213)
[9] = S. aureus 183, read-out: MIC S. aureus (183)
[10] = S. aureus 506, read-out: MIC S. aureus (506)
[11] = S. aureus 1708, read-out: MIC S. aureus (1708)
[12] = USA300, S. aureus USA300, read-out: MIC S. aureus (USA300)

Row | SMILES | MIC (E. faecalis strains) [µg/mL] | MIC (A. baumannii strains) [µg/mL] | MIC (E. coli strains) [µg/mL] | MIC (H. influenzae strains; [1]) [µg/mL] | MIC (H. influenzae strains; [2]) [µg/mL] | MIC (K. pneumoniae strains) [µg/mL] | MIC (S. pneumoniae strains; [3]) [µg/mL] | MIC (S. pneumoniae strains; [4]) [µg/mL] | MIC (S. pneumoniae strains; [5]) [µg/mL] | MIC (S. pneumoniae strains; [6]) [µg/mL] | MIC (S. pneumoniae strains; [7]) [µg/mL] | MIC (S. aureus strains; [8]) [µg/mL] | MIC (S. aureus strains; [9]) [µg/mL] | MIC (S. aureus strains; [10]) [µg/mL] | MIC (S. aureus strains; [11]) [µg/mL] | MIC (S. aureus strains; [12]) [µg/mL] | MIC S. pneumoniae (49619) (S. pneumoniae strains; S. pneumoniae 49619) [µg/mL]
1 | CC[C@H]1OC(=O)[C@H](Cc2cn[nH]c2)C(=O)[C@H](C)[C@@H](O[C@@H]2OC(C)CC(N(C)C)C2O)[C@](C)(OC)C[C@@H](C)CN[C@H](C)[C@H]2N(CCCCn3cc(-c4cccc(N)c4)nn3)C(=O)O[C@]12C (stereo partly drawn) [FSM-56192] | 32 (≈ 35.8 µM) | > 32 | > 32 | 8 (≈ 8.95 µM) | 32 (≈ 35.8 µM) | 16 (≈ 17.9 µM) | 8 (≈ 8.95 µM) | > 32 | > 32 | > 32 | 2 (≈ 2.24 µM) | > 32 | > 32 | > 32 | > 32 | > 32 | –
2 | CC[C@H]1OC(=O)[C@H](C)C(=O)[C@H](C)[C@@H](O[C@@H]2OC(C)CC(N(C)C)C2O)[C@](C)(OC)CC(C)(F)CN[C@H](C)[C@H]2N(CCCCn3cc(-c4cccc(N)c4)nn3)C(=O)O[C@]12C (stereo partly drawn) [FSM-30686] | 0.5 (≈ 0.591 µM) | > 32 | 32 (≈ 37.8 µM) | 2 (≈ 2.36 µM) | 8 (≈ 9.46 µM) | 8 (≈ 9.46 µM) | 0.5 (≈ 0.591 µM) | 4 (≈ 4.73 µM) | > 32 | > 32 | 0.25 (≈ 0.295 µM) | 8 (≈ 9.46 µM) | > 32 | > 32 | 4 (≈ 4.73 µM) | 8 (≈ 9.46 µM) | –
3 | CC[C@H]1OC(=O)[C@H](CC(=O)OC(C)(C)C)C(=O)[C@H](C)[C@@H](O[C@@H]2OC(C)CC(N(C)C)C2O)[C@](C)(OC)C[C@@H](C)CN[C@H](C)[C@H]2N(CCCCn3cc(-c4cccc(N)c4)nn3)C(=O)O[C@]12C (stereo partly drawn) [FSM-56178] | > 32 | > 32 | > 32 | > 32 | > 32 | > 32 | 8 (≈ 8.62 µM) | > 32 | > 32 | > 32 | > 32 | > 32 | > 32 | > 32 | > 32 | > 32 | –
4 | CC[C@H]1OC(=O)[C@H](C)C(=O)[C@H](C)[C@@H](O[C@@H]2OC(C)CC(N(C)C)C2O)[C@](C)(OC)C[C@@H](C)CN[C@H](CCO)[C@H]2N(CCCCn3cc(-c4cccc(N)c4)nn3)C(=O)O[C@]12C (stereo partly drawn) [FSM-11056] | 2 (≈ 2.33 µM) | > 32 | > 32 | 4 (≈ 4.66 µM) | 16 (≈ 18.6 µM) | 16 (≈ 18.6 µM) | 1 (≈ 1.17 µM) | 0.5 (≈ 0.583 µM) | > 32 | > 32 | 0.125 (≈ 0.146 µM) | 8 (≈ 9.32 µM) | > 32 | > 32 | 8 (≈ 9.32 µM) | 32 (≈ 37.3 µM) | –
5 | CC[C@H]1OC(=O)[C@H](C)C(=O)[C@H](C)[C@@H](O[C@@H]2OC(C)CC(N(C)C)C2O)[C@](C)(OC)C[C@@H](C)CCN[C@H](C)[C@H]2N(CCCCn3cc(-c4cccc(N)c4)nn3)C(=O)O[C@]12C (stereo partly drawn) [FSM-21397] | 0.5 (≈ 0.594 µM) | 16 (≈ 19 µM) | 16 (≈ 19 µM) | 2 (≈ 2.38 µM) | 4 (≈ 4.75 µM) | 4 (≈ 4.75 µM) | 0.25 (≈ 0.297 µM) | 4 (≈ 4.75 µM) | > 32 | > 32 | 0.125 (≈ 0.148 µM) | 2 (≈ 2.38 µM) | > 32 | > 32 | 2 (≈ 2.38 µM) | 2 (≈ 2.38 µM) | –
6 | CC[C@H]1OC(=O)[C@H](C)C(=O)[C@H](C)[C@@H](O[C@@H]2OC(C)CC(N(C)C)C2O)[C@](C)(OC)CC(C)N[C@H](C)[C@H]2N(CCCCn3cc(-c4cccc(N)c4)nn3)C(=O)O[C@]12C (single isomer, unassigned) [FSM-30689] | 32 (≈ 39.3 µM) | > 32 | > 32 | 16 (≈ 19.7 µM) | > 32 | > 32 | 16 (≈ 19.7 µM) | 16 (≈ 19.7 µM) | > 32 | > 32 | – | > 32 | > 32 | > 32 | > 32 | > 32 | 8 (≈ 9.83 µM)
